Test system: skin
Test: 5 day cumulative irritation patch study
Type: in vivo
Method: To evaluate the skin irritation potential of cleansing products, a 5 day cumulative irritation patch study was conducted. Cumulative irritancy patch testing is a modified primary irritancy patch test that can detect weak irritants that require multiple applications to cause a skin reaction. These reactions are due to direct damage to the epidermal cells and no immunologic (allergic) mechanism is involved. The procedure used in the Examples is a modification of that described by Dr. B. M. Lanman at the Joint Conference on Cosmetic Sciences, Apr.

For CCCCCCCCCCCCOS(=O)(=O)[O-].[Na+] [0.25% SLS, sodium lauryl sulfate], the “Irritancy Class” value was “Moderately” and the “Normalized Total Score” value was 290.2.

Reference: patent publication US20230000753A1, “Encapsulated Cleansing Composition” (Henkel AG & Co. KGaA, priority 2020, published 2023)
